Assay results from patent publication US12310969B2, “Antithrombotic compositions and methods for using same” (UNIVERSITY OF NORTH TEXAS, priority 2021, dated 2025).

What was measured:
zebrafish larvae = test: Laser-induced venous thrombosis, time to occlusion (TTO) of the caudal vein; type: in vivo; conditions: 5 dpf larvae, 2 hours
Experimental: (§1) UNC6852 (MedChem Express, Monmouth Junction, NJ), in 10% DMSO in saline were prepared at four different concentrations (0.075 mM, 0.15 mM, 0.3 mM and 0.6 mM). Eight nl of each of these solutions was injected into the 5 dpf larvae and incubated for 2 hours. For controls, 10% DMSO in saline was injected. For adult fish injections, 5 μl of 0.6 mM UNC6852 was injected intravenously and incubated for 6 hours.
For laser-induced venous thrombosis, 5 dpf larvae were transferred into a 1.5 ml Eppendorf tube containing 0.5 ml E3 medium followed by the addition of 10 μl of 10 mM MS222. After 2 minutes of anesthesia, 0.5 ml of 1.6% low melting agarose at 37° C. was added to the Eppendorf tube, and the contents were mixed gently by pipetting up and down using a transfer pipette. […] The slide with the larvae was focused with a 20× objective of the Nikon OPTIPHOT™ fluorescence microscope. The pulsed nitrogen laser with a wavelength of 445 nm, routed through the coumarin-440 dye (Micro Point Laser, Stanford Research Systems Inc., Sunnyvale, CA), was delivered at 10 hits per cycle through the fluorescence port to hit the mid-region in the caudal vein located in the 5th somite posterior to the anal pore.^22 TTO of the vessel was measured as the time taken to occlude the vessel from the time the laser hits the vessel until the vessel completely occludes.

tfpia mRNA = test: qRT-PCR of tfpia gene expression in liver and spleen of adult zebrafish; type: in vivo; conditions: adult fish, 5 μl of 0.6 mM injected intravenously, 6 hours post-injection, vs wild-type control
Experimental: as §1
Adult zebrafish were first anesthetized using 1 mM Tricaine in E3 medium. After 2 minutes, once the zebrafish flips on its side, it was removed from the medium, and an incision was made in the ventral surface from the anal pore up to the gills using a pair of scissors. The visible liver and spleen were retrieved using a pair of forceps. […]
To 1 μl of the liver and spleen RNA (1 μg/μl), 4 μl of QSCRIPT™ (gScript™) cDNA SUPERMIX™ (Quanta Bio, Beverly, MA) and 15 μl of nuclease-free water were added. […] The ΔCt values for WT samples were calculated as a difference between Ct values of β-actin and tfpia. The average ΔCt value for WT was then calculated. […] Similarly, in the knockdown samples, from each ΔCt value, the average ΔCt value of the WT was subtracted, and the resulting ΔΔCt value was calculated, followed by the calculation of fold change.

Structure (SMILES): Cc1ncsc1-c1ccc(CNC(=O)[C@@H]2C[C@@H](O)CN2C(=O)[C@@H](NC(=O)CCCNC(=O)c2ccc(-c3cnc(NCc4ccco4)n4cnnc34)cc2)C(C)(C)C)cc1 [UNC6852]
- time to occlusion (TTO) of the caudal vein after laser injury (zebrafish larvae; 8 nl injected intravenously at 0.075, 0.15, 0.3 and 0.6 mM, compared to control larvae (10% DMSO in saline)): dose-dependent prolongation of TTO
- concentration giving maximal prolongation of TTO (zebrafish larvae; 8 nl injected intravenously, 4 concentrations tested (0.075-0.6 mM)): 0.6 mM
- tfpia mRNA levels (fold change of tfpia gene expression in liver and spleen) (tfpia mRNA): increased tfpia mRNA levels
